Measured values from patent publication US12303509B2, “Compounds for the treatment of BRAF-associated diseases and disorders” (Pfizer Inc., priority 2020, dated 2025).
Structures can show the parent of a compound that is named as a salt.

Legend:
[1] = molecular target: BCRP (Homo sapiens (Human), UniProt Q9UNQ0); assay: BCRP MDCKII permeability assay: efflux ratio; type: in vitro ADME; conditions: dog
Method: BCRP transfected MDCKII cells were cultured and plated according to manufacturer's recommendations. Assay conditions included with and without the BCRP-specific inhibitor, KO143, at a concentration of 0.3 μM to ascertain the contribution of BCRP to the efflux value of the test compound.
Both positive and negative controls were used to assess functionality of P-gp or BCRP efflux in the assays. […] Final organic concentration in the assay was 1%. All dosing solutions contained 10 μM lucifer yellow to monitor LLC-PK1 or MDCKII cell monolayer integrity.
For the apical to basolateral determination (A to B), 75 μL of the test article in transport buffer were added to the apical side of the individual transwells and 250 μL of basolateral media, without compound or lucifer yellow, were added to each well. For the basolateral to apical determination (B to A), 250 μL of test article in transport buffer were added to each well and 75 μL transport buffer, without compound or lucifer yellow, were added to each transwell. All tests were performed in triplicate, and each compound was tested for both apical to basolateral and basolateral to apical transport. The plates were incubated for 2 hours on a Lab-Line Instruments Titer Orbital Shaker (VWR, West Chester, PA) at 50 rpm and 37° C. with 5% CO2. All culture plates were removed from the incubator and 50 μL of media were removed from the apical and basolateral portion of each well and added to 150 μL of 1 μM labetalol in 2:1 acetonitrile (acetonitrile): H2O, v/v.
These values were accepted when found to be below 2% for apical to basolateral and 5% basolateral to apical flux across the MDR1-transfected LLC-PK1 or BCRP-transfected MDCKII cell monolayers. The plates were sealed and the contents of each well analyzed by LC-MS/MS. The compound concentrations were determined from the ratio of the peak areas of the compound to the internal standard (labetalol) in comparison to the dosing solution.
The LC-MS/MS system was comprised of an HTS-PAL autosampler (Leap Technologies, Carrboro, NC), an HP1200 HPLC (Agilent, Palo Alto, CA), and a MDS Sciex 4000 Q Trap system (Applied Biosystems, Foster City, CA). […] The total run time, including re-equilibration, for a single injection was 1.2 minutes. Mass spectrometric detection of the analytes was accomplished using the ion spray positive mode.
An efflux ratio is calculated from the mean apical to basolateral (A-B) Papp data and basolateral to apical (B-A) Papp data using the following equation: Efflux ratio=Papp(B-A)/Papp(A-B)

[2] = molecular target: P-gp (MDR1) (Homo sapiens (Human), UniProt P08183); assay: MDR1 LLC-PK1 permeability assay: efflux ratio; type: in vitro ADME; conditions: pig
Text: (§1) Final organic concentration in the assay was 1%.

[3] = system: A375 cells; assay: Cellular phospho-ERK inhibition assay in A375 cells; type: cell-based; conditions: Homo sapiens, A-375, A375 cells (head prints A357), 2 hours treatment, read-out: A357 cell IC50
Summary of the method: (§2)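 In Cell Western detection of phospho-ERK1/2 (Thr202/Tyr204) over GAPDH after 2 h compound exposure (66 pM to 10 μM, 9 points, 0.25% DMSO) of A375 cells in DMEM or H1755 cells in RPMI, both with 10% FBS. Percent of control set by DMSO and 10 μM binimetinib; 4-parameter IC50.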

[4] = molecular target: full-length FLAG-tagged B-Raf(V600E) (Homo sapiens (Human), UniProt P15056, V600E); assay: BRAF V600E enzyme assay (TR-FRET competitive displacement); type: binding; conditions: averaged IC50; TR-FRET tracer displacement, 60 min
Summary of the method: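 TR-FRET tracer competition: compound (top dose 10 μM, 3-fold, 11 points) incubated 60 min at ambient temperature with FLAG-tagged full-length B-Raf(V600E) (5 nM), Eu anti-FLAG cryptate (0.5 nM) and tracer (50 nM), pH 7.4 HEPES/MgCl2 buffer. 665/615 ratio converted to percent of control; IC50 where fitted curve crosses 50 POC.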

[5] = system: H1755 cells; assay: Cellular phospho-ERK inhibition assay in H1755 cells; type: cell-based; conditions: Homo sapiens, NCI-H1755, 2 hours treatment, read-out: H1755 Cell IC50
Summary of the method: as §2

[6] = MDR1 LLC-PK1 and BCRP MDCKII permeability assay: permeability coefficient (Papp); type: in vitro ADME
Text: as §1

P-gp (MDR1), sequence (P08183 whole entry, species assumed): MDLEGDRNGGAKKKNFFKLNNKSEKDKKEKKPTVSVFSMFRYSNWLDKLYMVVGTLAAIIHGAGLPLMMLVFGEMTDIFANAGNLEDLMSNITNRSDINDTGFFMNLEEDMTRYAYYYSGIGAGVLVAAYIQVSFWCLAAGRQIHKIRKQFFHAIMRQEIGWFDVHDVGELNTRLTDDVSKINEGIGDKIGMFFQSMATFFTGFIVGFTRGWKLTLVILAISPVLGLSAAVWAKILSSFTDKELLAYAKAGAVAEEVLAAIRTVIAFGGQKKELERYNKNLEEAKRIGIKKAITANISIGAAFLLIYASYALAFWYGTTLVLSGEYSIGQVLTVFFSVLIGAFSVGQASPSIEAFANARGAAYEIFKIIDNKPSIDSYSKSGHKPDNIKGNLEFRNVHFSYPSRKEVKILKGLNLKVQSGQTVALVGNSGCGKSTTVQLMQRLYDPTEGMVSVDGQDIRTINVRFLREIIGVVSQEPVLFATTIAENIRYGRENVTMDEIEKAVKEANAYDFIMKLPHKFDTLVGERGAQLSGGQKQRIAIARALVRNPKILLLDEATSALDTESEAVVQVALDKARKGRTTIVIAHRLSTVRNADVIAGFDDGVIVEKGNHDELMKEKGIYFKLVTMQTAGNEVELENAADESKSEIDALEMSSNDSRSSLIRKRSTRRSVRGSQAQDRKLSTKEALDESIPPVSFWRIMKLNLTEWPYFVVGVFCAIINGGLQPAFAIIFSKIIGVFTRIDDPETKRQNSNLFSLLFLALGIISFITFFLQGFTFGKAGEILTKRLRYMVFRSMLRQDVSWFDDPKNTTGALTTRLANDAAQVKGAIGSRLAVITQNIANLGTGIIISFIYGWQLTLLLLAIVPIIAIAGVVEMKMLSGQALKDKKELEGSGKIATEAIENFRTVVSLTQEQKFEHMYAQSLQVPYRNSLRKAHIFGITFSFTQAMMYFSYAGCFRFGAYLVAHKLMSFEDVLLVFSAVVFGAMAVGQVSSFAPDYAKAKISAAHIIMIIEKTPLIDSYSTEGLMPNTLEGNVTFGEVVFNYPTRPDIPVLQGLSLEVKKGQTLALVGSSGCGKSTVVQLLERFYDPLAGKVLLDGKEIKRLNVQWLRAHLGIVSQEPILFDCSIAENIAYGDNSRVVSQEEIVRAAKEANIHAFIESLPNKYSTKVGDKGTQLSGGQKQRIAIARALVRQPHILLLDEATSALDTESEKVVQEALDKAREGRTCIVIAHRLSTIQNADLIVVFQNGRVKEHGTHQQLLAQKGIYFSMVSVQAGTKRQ
BCRP, sequence (Q9UNQ0 whole entry): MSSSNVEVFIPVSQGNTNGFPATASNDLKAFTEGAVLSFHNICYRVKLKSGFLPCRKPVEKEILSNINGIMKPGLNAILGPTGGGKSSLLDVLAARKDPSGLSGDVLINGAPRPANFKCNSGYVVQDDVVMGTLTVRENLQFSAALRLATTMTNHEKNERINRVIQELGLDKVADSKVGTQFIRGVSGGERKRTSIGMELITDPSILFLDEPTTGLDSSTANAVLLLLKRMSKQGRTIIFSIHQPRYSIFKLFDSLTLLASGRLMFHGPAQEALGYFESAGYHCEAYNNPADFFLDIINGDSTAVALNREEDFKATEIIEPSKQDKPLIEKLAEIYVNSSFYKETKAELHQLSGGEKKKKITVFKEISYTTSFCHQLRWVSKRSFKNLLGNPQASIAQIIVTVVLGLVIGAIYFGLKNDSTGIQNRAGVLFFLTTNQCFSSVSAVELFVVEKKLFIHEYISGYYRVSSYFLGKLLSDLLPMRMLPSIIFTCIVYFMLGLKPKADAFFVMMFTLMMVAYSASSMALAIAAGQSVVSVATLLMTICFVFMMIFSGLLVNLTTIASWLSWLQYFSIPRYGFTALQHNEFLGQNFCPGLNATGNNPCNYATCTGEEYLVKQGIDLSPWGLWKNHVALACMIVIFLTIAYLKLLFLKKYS
full-length FLAG-tagged B-Raf(V600E), sequence (P15056 whole entry V600E): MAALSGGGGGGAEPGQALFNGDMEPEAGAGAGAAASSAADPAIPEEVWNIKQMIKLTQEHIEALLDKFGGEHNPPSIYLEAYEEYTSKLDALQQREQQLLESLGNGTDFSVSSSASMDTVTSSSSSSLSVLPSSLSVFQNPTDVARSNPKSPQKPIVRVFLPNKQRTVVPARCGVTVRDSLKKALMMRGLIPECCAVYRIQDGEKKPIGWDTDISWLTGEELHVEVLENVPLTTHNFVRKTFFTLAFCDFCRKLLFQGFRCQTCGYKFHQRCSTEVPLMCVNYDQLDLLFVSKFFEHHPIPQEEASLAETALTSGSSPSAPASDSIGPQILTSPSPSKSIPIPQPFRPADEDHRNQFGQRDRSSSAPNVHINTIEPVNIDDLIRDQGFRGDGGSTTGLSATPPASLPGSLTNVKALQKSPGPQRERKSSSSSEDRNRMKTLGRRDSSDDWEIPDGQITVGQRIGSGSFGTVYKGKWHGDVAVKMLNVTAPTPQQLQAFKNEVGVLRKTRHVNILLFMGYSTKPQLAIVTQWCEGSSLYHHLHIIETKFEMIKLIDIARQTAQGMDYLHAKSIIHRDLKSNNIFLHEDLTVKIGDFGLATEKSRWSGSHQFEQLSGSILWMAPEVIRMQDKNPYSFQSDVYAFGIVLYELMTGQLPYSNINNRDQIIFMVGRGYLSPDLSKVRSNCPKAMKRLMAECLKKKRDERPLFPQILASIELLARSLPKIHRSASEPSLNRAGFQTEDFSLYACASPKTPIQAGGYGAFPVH

Row | efflux ratio at 2 h, 1 µM [1] | efflux ratio at 2 h, 1 µM [2] | IC50 [3] | IC50 [4] | IC50 [5] | Papp at 2 h, 1 µM [6] | SMILES
1 | 3.7 | 3.3 | 4 nM | 6 nM | 15 nM | 31 ×10⁻⁶ cm/s | Cn1cnc2ccc(Nc3c(F)ccc(NS(=O)(=O)N4CC[C@@H](OC(F)F)C4)c3Cl)c(F)c2c1=O [Example 26, (R)-N-(2-chloro-4-fluoro-3-((5-fluoro-3-methyl-4-oxo-3,4-dihydroquinazolin-6-yl)amino)phenyl)-3-(difluoromethoxy)pyrrolidine-1-sulfonamide]
2 | 4.4 | 2.7 | 5 nM | 5 nM | 27 nM | 39 ×10⁻⁶ cm/s | Cn1cnc2ccc(Nc3c(F)ccc(NS(=O)(=O)N4CC[C@H](F)C4)c3Cl)c(F)c2c1=O [Example 27, (S)-N-(2-chloro-4-fluoro-3-((5-fluoro-3-methyl-4-oxo-3,4-dihydroquinazolin-6-yl)amino)phenyl)-3-fluoropyrrolidine-1-sulfonamide trifluoroacetate]
3 | 1.7 | 2 | 7 nM | 4 nM | 38 nM | 37 ×10⁻⁶ cm/s | Cn1cnc2ccc(Nc3c(F)ccc(NS(=O)(=O)N4CC[C@H](F)C4)c3Cl)c(Cl)c2c1=O [Example 28, (S)-N-(2-chloro-3-((5-chloro-3-methyl-4-oxo-3,4-dihydroquinazolin-6-yl)amino)-4-fluorophenyl)-3-fluoropyrrolidine-1-sulfonamide]
4 | 1 | 1.2 | 9 nM | 1 nM | 168 nM | 31 ×10⁻⁶ cm/s | Cn1cnc2ccc(Nc3c(F)c(F)cc(NS(=O)(=O)N4CCCC4)c3Cl)c(Cl)c2c1=O [Example 31, N-(2-chloro-3-((5-chloro-3-methyl-4-oxo-3,4-dihydroquinazolin-6-yl)amino)-4,5-difluorophenyl)pyrrolidine-1-sulfonamide trifluoroacetate]
5 | 1 | 1.8 | 5 nM | 2 nM | 83 nM | 32 ×10⁻⁶ cm/s | CO[C@@H]1CCN(S(=O)(=O)Nc2cc(F)c(F)c(Nc3ccc4ncn(C)c(=O)c4c3Cl)c2Cl)C1 [Example 32, (R)-N-(2-chloro-3-((5-chloro-3-methyl-4-oxo-3,4-dihydroquinazolin-6-yl)amino)-4,5-difluorophenyl)-3-methoxypyrrolidine-1-sulfonamide trifluoroacetate]
6 | 2.2 | 1.7 | 8 nM | 1 nM | 84 nM | 25 ×10⁻⁶ cm/s | Cn1cnc2ccc(Nc3c(F)c(F)cc(NS(=O)(=O)N4CC[C@@H](F)C4)c3Cl)c(Cl)c2c1=O [Example 33, (R)-N-(2-chloro-3-((5-chloro-3-methyl-4-oxo-3,4-dihydroquinazolin-6-yl)amino)-4,5-difluorophenyl)-3-fluoropyrrolidine-1-sulfonamide trifluoroacetate]
7 | 2.6 | 2.9 | 4 nM | 4 nM | 54 nM | 30 ×10⁻⁶ cm/s | CO[C@@H]1CCN(S(=O)(=O)Nc2cc(F)c(F)c(Nc3ccc4ncn(C)c(=O)c4c3Cl)c2F)C1 [Example 34, (R)-N-(3-((5-chloro-3-methyl-4-oxo-3,4-dihydroquinazolin-6-yl)amino)-2,4,5-trifluorophenyl)-3-methoxypyrrolidine-1-sulfonamide]
8 | 2.1 | 1.5 | 21 nM | 2 nM | 163 nM | 31 ×10⁻⁶ cm/s | Cc1c(Nc2c(F)c(F)cc(NS(=O)(=O)N3CC[C@@H](F)C3)c2Cl)ccc2ncn(C)c(=O)c12 [Example 35, (R)-N-(2-chloro-3-((3,5-dimethyl-4-oxo-3,4-dihydroquinazolin-6-yl)amino)-4,5-difluorophenyl)-3-fluoropyrrolidine-1-sulfonamide]
9 | 9.9 | 2.9 | 5 nM | 1 nM | 61 nM | 25 ×10⁻⁶ cm/s | Cn1cnc2ccc(Nc3c(F)c(F)cc(NS(=O)(=O)N4CC[C@@H](F)C4)c3F)c(Cl)c2c1=O [Example 36, (R)-N-(3-((5-chloro-3-methyl-4-oxo-3,4-dihydroquinazolin-6-yl)amino)-2,4,5-trifluorophenyl)-3-fluoropyrrolidine-1-sulfonamide trifluoroacetate]
10 | 0.9 | 1.3 | 8 nM | 3 nM | 55 nM | 23 ×10⁻⁶ cm/s | Cn1cnc2ccc(Oc3c(F)ccc(NS(=O)(=O)N4CCCC4)c3Cl)c(Cl)c2c1=O [Example 39, N-(2-chloro-3-((5-chloro-3-methyl-4-oxo-3,4-dihydroquinazolin-6-yl)oxy)-4-fluorophenyl)pyrrolidine-1-sulfonamide]
11 | 2.4 | 1.8 | 4 nM | 2 nM | 42 nM | 27 ×10⁻⁶ cm/s | O=c1c2c(F)c(Nc3c(F)ccc(NS(=O)(=O)N4CCCC4)c3Cl)ccc2ncn1CF [Example 42, N-(2-chloro-4-fluoro-3-((5-fluoro-3-(fluoromethyl)-4-oxo-3,4-dihydroquinazolin-6-yl)amino)phenyl)pyrrolidine-1-sulfonamide trifluoroacetate]
12 | 1.9 | 1.8 | 4 nM | 1 nM | 45 nM | 32 ×10⁻⁶ cm/s | Cn1cnc2ccc(Nc3c(F)c(F)cc(NS(=O)(=O)N4CCCC4)c3F)c(Cl)c2c1=O [Example 43, N-(3-((5-chloro-3-methyl-4-oxo-3,4-dihydroquinazolin-6-yl)amino)-2,4,5-trifluorophenyl)pyrrolidine-1-sulfonamide trifluoroacetate]
13 | 1.6 | 1.6 | 4 nM | 4 nM | 102 nM | 40 ×10⁻⁶ cm/s | CCN(C)S(=O)(=O)Nc1cc(F)c(F)c(Nc2ccc3ncn(C)c(=O)c3c2F)c1Cl [Example 45, N-(2-chloro-4,5-difluoro-3-((5-fluoro-3-methyl-4-oxo-3,4-dihydroquinazolin-6-yl)phenyl)-(N-ethyl-N-methyl)-sulfamide trifluoroacetate]
14 | 6.3 | 2.8 | 2 nM | 1 nM | 103 nM | 30 ×10⁻⁶ cm/s | Cn1cnc2ccc(Nc3c(F)c(F)cc(NS(=O)(=O)N4CC[C@@H](F)C4)c3Cl)c(F)c2c1=O [Example 46, (R)-N-(2-chloro-4,5-difluoro-3-((5-fluoro-3-methyl-4-oxo-3,4-dihydroquinazolin-6-yl)amino)phenyl)-3-fluoropyrrolidine-1-sulfonamide trifluoroacetate]
15 | 2.5 | 3.6 | 2 nM | 2 nM | 23 nM | 26 ×10⁻⁶ cm/s | CO[C@@H]1CCN(S(=O)(=O)Nc2cc(F)c(F)c(Nc3ccc4ncn(C)c(=O)c4c3F)c2Cl)C1 [Example 47, (R)-N-(2-chloro-4,5-difluoro-3-((5-fluoro-3-methyl-4-oxo-3,4-dihydroquinazolin-6-yl)amino)phenyl)-3-methoxypyrrolidine-1-sulfonamide trifluoroacetate]
